Counter-ions that a name gives are not always drawn.
How the values were obtained:
Na-Pi cotransporter [1] = target: T1, Na-Pi cotransporter (Canis lupus familiaris, UniProt A0A8I3NFY6); assay: Na+-gradient-dependent 32Pi uptake by renal BBMV, dog; format: biochemical
T1 construct: were prepared from renal cortices of mongrel dogs, albino mice and New Zealand albino rabbits; from tissue; host or cells: mongrel dog renal cortex, brush border membrane vesicles
T1 sequence (A0A8I3NFY6 1-639): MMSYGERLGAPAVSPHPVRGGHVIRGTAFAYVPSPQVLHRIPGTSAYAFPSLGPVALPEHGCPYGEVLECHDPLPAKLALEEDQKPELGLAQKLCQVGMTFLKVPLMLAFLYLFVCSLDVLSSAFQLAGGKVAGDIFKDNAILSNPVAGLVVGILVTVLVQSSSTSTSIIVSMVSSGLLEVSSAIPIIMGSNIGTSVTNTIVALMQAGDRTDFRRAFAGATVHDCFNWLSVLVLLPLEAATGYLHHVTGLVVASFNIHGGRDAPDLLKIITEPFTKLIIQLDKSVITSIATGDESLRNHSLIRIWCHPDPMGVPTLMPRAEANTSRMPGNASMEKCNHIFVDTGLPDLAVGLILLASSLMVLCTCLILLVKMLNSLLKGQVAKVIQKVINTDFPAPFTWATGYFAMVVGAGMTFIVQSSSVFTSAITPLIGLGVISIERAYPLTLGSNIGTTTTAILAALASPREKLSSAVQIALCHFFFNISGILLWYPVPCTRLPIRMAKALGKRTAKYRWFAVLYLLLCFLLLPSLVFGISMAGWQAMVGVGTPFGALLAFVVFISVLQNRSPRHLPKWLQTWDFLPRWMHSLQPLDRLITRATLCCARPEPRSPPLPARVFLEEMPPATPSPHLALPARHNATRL
Protocol: (§1) The brush border membrane vesicles (BBMV) were prepared from renal cortical tissue of adult male Sprague-Dawley rats of an average body weight of about 220 grams. Rats were fed ad libitum standard rat chow containing 0.7% Pi and had free access to distilled water. Rats were sacrificed under anesthesia and dissected renal cortical tissue was used for preparation of BBMV fraction by the divalent cation-precipitation procedure, employed and described in detail in J. Clin. Invest., 67, 1347 (1981) and J. Biol. Chem., 258, 5695 (1983), with the following modifications: (a) MgCl2 instead of CaCl2 was added to crude homogenate (final concentration 10 mM MgCl2) to precipitate membranes other than BBMV; (b) in the final step, BBMV were washed and equilibrated in a medium of pH=7.5, instead of pH=8.5. The enrichment and specific activities of typical BBM enzymes alkaline phosphatase (APases), γ-glutyamyl transferase (γ-GTT), leucineaminopeptidase (LAP) and maltase with use of these modifications were similar as in BBMV fractions prepared in our previous studies. As a final step in the preparative procedure, the BBMV fraction was washed and resuspended in a medium containing 300 mM mannitol and 5 mM Tris-HEPES adjusted to pH=t.5, referred to as "MTH-medium," unless specified otherwise. The analogous BBMV fractions, using the same procedure, were prepared from renal cortices of mongrel dogs, albino mice and New Zealand albino rabbits.
(§2) The BBMV uptake of ^32 Pi, D-[^3 H]-glucose, L-[^3 H]-proline and ^22 Na^+ was measured by means of a rapid filtration technique, as described in J. Clin. Invest., 67, 1347 (1981) and Am. J. Physiol., 246, F133-F139 (1984). Also, unless specified otherwise, the medium for the solute uptake assay consisted of following compounds (in final concentrations): 100 mM mannitol, 100 mM NaCl (or 100 mM KC1) and 5 mM Tris-HEPES (pH=7.5) and eitehr 0.1 mM K2 H^32 PO4, or 0.05 mM D-[^3 H]-glucose, or 0.025 mM L-[^3 H]-proline. IN the ^22 Na^+ uptake studies, the assay medium contained 100 mM ^22 NaCl (^22 NaCl about […] per tube), 100 mM mannitol and 5 mM Tris-HEPES (pH 7.5).
(§3) In most experiments, the Na^+ -gradient-dependent ^32 Pi uptake in the concentrative "uphill" phase was measured at 20 seconds period. Since Na^+ -independent Pi uptake in this time period was quantitatively minor component (<5%) of the Na^+ -gradient-dependent Pi uptake, it was not routinely subtracted.

[2] = tested on: L-[^3 H]-proline uptake by BBMV; assay: Na+-gradient-dependent uptake of L-[3H]-proline by renal BBMV; format: biochemical, rat; conditions: 1 mM TPFA; mean ± SEM, n=4; control 43±3
Protocol: as §1, with “As a final step in the preparative procedure, the BBMV fraction was washed and resuspended in a medium containing 300 mM mannitol and 5 mM Tris-HEPES adjusted to pH=t.5, referred to as "MTH-medium," unless specified otherwise. The analogous BBMV fractions, using the same procedure, were prepared from renal cortices of mongrel dogs, albino mice and New Zealand albino rabbits.” left out
The BBMV uptake of ^32 Pi, D-[^3 H]-glucose, L-[^3 H]-proline and ^22 Na^+ was measured by means of a rapid filtration technique, as described in J. Clin. Invest., 67, 1347 (1981) and Am. […]

Na-Pi cotransporter [3] = target: T2, Na-Pi cotransporter (Oryctolagus cuniculus, UniProt Q28620); assay: Na+-gradient-dependent 32Pi uptake by renal BBMV, rabbit; format: biochemical
T2 construct: were prepared from renal cortices of mongrel dogs, albino mice and New Zealand albino rabbits; from tissue; host or cells: New Zealand albino rabbit renal cortex, brush border membrane vesicles
T2 sequence (Q28620 1-642): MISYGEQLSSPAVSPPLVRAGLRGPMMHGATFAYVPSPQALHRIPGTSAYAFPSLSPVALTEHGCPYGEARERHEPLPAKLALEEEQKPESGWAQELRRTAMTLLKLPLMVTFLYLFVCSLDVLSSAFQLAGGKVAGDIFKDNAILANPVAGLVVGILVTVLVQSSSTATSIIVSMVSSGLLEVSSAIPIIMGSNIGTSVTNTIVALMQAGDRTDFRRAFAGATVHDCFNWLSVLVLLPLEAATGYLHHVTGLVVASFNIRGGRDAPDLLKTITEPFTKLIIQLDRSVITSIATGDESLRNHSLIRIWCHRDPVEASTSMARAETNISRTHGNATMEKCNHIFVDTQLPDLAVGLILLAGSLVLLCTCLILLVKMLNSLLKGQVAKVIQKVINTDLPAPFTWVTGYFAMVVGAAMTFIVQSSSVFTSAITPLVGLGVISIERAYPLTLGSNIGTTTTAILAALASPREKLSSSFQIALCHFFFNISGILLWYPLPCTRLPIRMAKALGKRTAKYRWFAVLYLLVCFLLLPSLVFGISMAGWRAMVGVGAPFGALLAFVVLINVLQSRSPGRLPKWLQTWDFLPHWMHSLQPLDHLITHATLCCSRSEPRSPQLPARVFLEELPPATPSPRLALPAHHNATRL
Protocol: as §1, §2, §3

[4] = in vivo; cited from earlier work
[5] = 20 s, 1 mM TPFA, read-out: percent decrease of 20 sec 32Pi-uptake relative to control value
[6] = 20 s, 5 mM TPFA, read-out: percent decrease of 20 sec 32Pi-uptake relative to control value

For O=C(O)P(=O)(O)O [TPFA, Phosphonoformic acid, trisodium salt hexahydrate], the “32Pi-uptake 120 min” value (Na-Pi cotransporter [1]; 1 mM TPFA, control 410 ± 5) was 377 ± 6 pmoles Pi/mg protein/time, the “32Pi-uptake 20 sec” value (Na-Pi cotransporter [1]; 1 mM TPFA, control 1178 ± 15) was 476 ± 9 pmoles Pi/mg protein/time and the “32Pi-uptake 20 sec” value (Na-Pi cotransporter [1]; 5 mM TPFA) was 110 ± 3 pmoles Pi/mg protein/time. For the same molecule, the “32Pi-uptake 120 min” value (Na-Pi cotransporter [1]; 5 mM TPFA) was 428 ± 9 pmoles Pi/mg protein/time, the inhibition at 1000 µM (Na-Pi cotransporter [1]; [5]) was 59.6% and the inhibition at 5000 µM (Na-Pi cotransporter [1]; [6]) was 90.7%. For the same molecule, the “equilibrium uptake of L-[3H]-proline at 120 minutes” value [2] was 43+1 pmoles/mg protein, the “32Pi-uptake 120 min” value (Na-Pi cotransporter [3]; 1 mM TPFA, control 551 ± 15) was 532 ± 19 pmoles Pi/mg protein/time and the “32Pi-uptake 20 sec” value (Na-Pi cotransporter [3]; 1 mM TPFA, control 768 ± 7) was 279 ± 4 pmoles Pi/mg protein/time. For the same molecule, the “32Pi-uptake 20 sec” value (Na-Pi cotransporter [3]; 5 mM TPFA) was 107 ± 5 pmoles Pi/mg protein/time, the “32Pi-uptake 120 min” value (Na-Pi cotransporter [3]; 5 mM TPFA) was 549 ± 11 pmoles Pi/mg protein/time and the inhibition at 1000 µM (Na-Pi cotransporter [3]; [5]) was 63.7%. The inhibition at 5000 µM (Na-Pi cotransporter [3]; [6]) was 86.1% and the “toxic effects on bone in general toxicity studies” value [4] was “not toxic effects on bone”.

— patent publication US4806532A, “Inhibition of epithelial phosphate transport” (Mayo Foundation for Medical Education and Research, priority 1985, dated 1989)
